# Test results reported in ChEMBL document CHEMBL1201862, “PubChem BioAssay data set” (2004).
#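 Cells were grown in 96-well plates and exposed to each compound for 48 hours at five concentrations; endpoints were interpolated linearly between bracketing concentrations, or set to the highest concentration if not reached. GI50: concentration for 50% inhibition of growth.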 Active and inactive are the calls of the source. Cut-off read from the data, not from the text of the source: active = GI50 up to about 1.1 µM and inactive = higher.
# Experiments:
# Test in all cases: NCI tumour cell line growth inhibition, 48 h
# NCI-H522 = tested on: NCI-H522
# DU-145 = tested on: DU-145
# NCI-H23 = tested on: NCI-H23
# KM12 = tested on: KM12
# UACC-257 = tested on: UACC-257
# SW-620 = tested on: SW-620
# UACC-62 = tested on: UACC-62
# BT-549 = tested on: BT-549
# MDA-MB-435 = tested on: MDA-MB-435
# MDA-N = tested on: MDA-N
# SK-MEL-28 = tested on: SK-MEL-28
# CAKI-1 = tested on: CAKI-1
# K562 = tested on: K562
# SNB-19 = tested on: SNB-19
# HOP-92 = tested on: HOP-92
# NCI/ADR-RES = tested on: NCI/ADR-RES
# SNB-75 = tested on: SNB-75
# Malme-3M = tested on: Malme-3M
# OVCAR-3 = tested on: OVCAR-3
# OVCAR-5 = tested on: OVCAR-5
# HCT-15 = tested on: HCT-15
# MDA-MB-231 = tested on: MDA-MB-231
# 786-0 = tested on: 786-0
# A549 = tested on: A549
# NCI-H226 = tested on: NCI-H226
# OVCAR-4 = tested on: OVCAR-4
# U-251 = tested on: U-251
# IGROV-1 = tested on: IGROV-1
# MOLT-4 = tested on: MOLT-4
# SK-MEL-5 = tested on: SK-MEL-5
# HT-29 = tested on: HT-29
# T47D = tested on: T47D
# PC-3 = tested on: PC-3
# SN12C = tested on: SN12C
# SF-268 = tested on: SF-268
# UO-31 = tested on: UO-31
# RPMI-8226 = tested on: RPMI-8226
# Hs-578T = tested on: Hs-578T
# A498 = tested on: A498
# SK-MEL-2 = tested on: SK-MEL-2
# EKVX = tested on: EKVX
# COLO 205 = tested on: COLO 205
# TK-10 = tested on: TK-10
# OVCAR-8 = tested on: OVCAR-8
# LOX IMVI = tested on: LOX IMVI
# ACHN = tested on: ACHN
# RXF 393 = tested on: RXF 393
# M14 = tested on: M14
# HCT-116 = tested on: HCT-116
# SF-295 = tested on: SF-295
# SK-OV-3 = tested on: SK-OV-3
# CCRF-CEM = tested on: CCRF-CEM
# HOP-62 = tested on: HOP-62
# SR = tested on: SR
# MCF7 = tested on: MCF7
# HCC 2998 = tested on: HCC 2998
# HL-60 = tested on: HL-60
# SF-539 = tested on: SF-539
# NCI-H460 = tested on: NCI-H460
structure (smiles),measurement,setting,value
CCOC(=O)[C@@H]1[C@@H](c2ccccc2)N(C)O[C@@]1(c1ccccc1)C(F)(F)F,GI50,NCI-H522,39.9 µM (inactive)
same,GI50,DU-145,> 100 µM (inactive)
same,GI50,NCI-H23,59.6 µM (inactive)
same,GI50,KM12,58.9 µM (inactive)
same,GI50,UACC-257,55 µM (inactive)
same,GI50,SW-620,43.7 µM (inactive)
same,GI50,UACC-62,43.5 µM (inactive)
same,GI50,BT-549,> 100 µM (inactive)
same,GI50,MDA-MB-435,28.4 µM (inactive)
same,GI50,MDA-N,52.8 µM (inactive)
same,GI50,SK-MEL-28,85.9 µM (inactive)
same,GI50,CAKI-1,> 100 µM (inactive)
same,GI50,K562,> 10 µM (inactive)
same,GI50,SNB-19,> 100 µM (inactive)
same,GI50,HOP-92,> 100 µM (inactive)
same,GI50,NCI/ADR-RES,> 100 µM (inactive)
same,GI50,SNB-75,> 100 µM (inactive)
same,GI50,Malme-3M,44.2 µM (inactive)
same,GI50,OVCAR-3,97.1 µM (inactive)
same,GI50,OVCAR-5,> 100 µM (inactive)
same,GI50,HCT-15,40.1 µM
same,GI50,MDA-MB-231,> 100 µM (inactive)
same,GI50,786-0,> 100 µM (inactive)
same,GI50,A549,47.3 µM (inactive)
same,GI50,NCI-H226,23.1 µM (inactive)
same,GI50,OVCAR-4,77.3 µM (inactive)
same,GI50,U-251,50.4 µM (inactive)
same,GI50,IGROV-1,> 100 µM (inactive)
same,GI50,MOLT-4,> 10 µM (inactive)
same,GI50,SK-MEL-5,27 µM (inactive)
same,GI50,HT-29,18.7 µM (inactive)
same,GI50,T47D,67.9 µM (inactive)
same,GI50,PC-3,58.5 µM (inactive)
same,GI50,SN12C,> 100 µM (inactive)
same,GI50,SF-268,> 100 µM (inactive)
same,GI50,UO-31,> 100 µM (inactive)
same,GI50,RPMI-8226,20.7 µM (inactive)
same,GI50,Hs-578T,> 100 µM (inactive)
same,GI50,A498,> 100 µM (inactive)
same,GI50,SK-MEL-2,25.5 µM (inactive)
same,GI50,EKVX,86.3 µM (inactive)
same,GI50,COLO 205,> 100 µM (inactive)
same,GI50,TK-10,> 100 µM (inactive)
same,GI50,OVCAR-8,> 100 µM (inactive)
same,GI50,LOX IMVI,70.5 µM (inactive)
same,GI50,ACHN,44.8 µM (inactive)
same,GI50,RXF 393,40.2 µM (inactive)
same,GI50,M14,31 µM (inactive)
same,GI50,HCT-116,36.5 µM (inactive)
same,GI50,SF-295,64.6 µM (inactive)
same,GI50,SK-OV-3,43.7 µM (inactive)
same,GI50,CCRF-CEM,20.1 µM (inactive)
same,GI50,HOP-62,> 100 µM (inactive)
N=C(N)N/N=C/c1c(-c2ccc(Cl)c([N+](=O)[O-])c2)nc2sc(Cl)cn12,GI50,NCI-H522,1.51 µM (inactive)
same,GI50,DU-145,1.95 µM (inactive)
same,GI50,SR,1.44 µM (inactive)
same,GI50,NCI-H23,3.68 µM (inactive)
same,GI50,KM12,2.56 µM (inactive)
same,GI50,UACC-257,1.91 µM (inactive)
same,GI50,SW-620,2.2 µM (inactive)
same,GI50,UACC-62,1.95 µM (inactive)
same,GI50,BT-549,1.69 µM (inactive)
same,GI50,MDA-MB-435,2.25 µM (inactive)
same,GI50,SK-MEL-28,1.94 µM (inactive)
same,GI50,CAKI-1,2.34 µM (inactive)
same,GI50,K562,0.617 µM (active)
same,GI50,SNB-19,1.79 µM (inactive)
same,GI50,HOP-92,1.67 µM (inactive)
same,GI50,NCI/ADR-RES,46 µM (inactive)
same,GI50,Malme-3M,2.84 µM (inactive)
same,GI50,OVCAR-3,1.51 µM (inactive)
same,GI50,OVCAR-5,4.17 µM (inactive)
same,GI50,HCT-15,2.29 µM
same,GI50,MDA-MB-231,1.97 µM (inactive)
same,GI50,786-0,3.15 µM (inactive)
same,GI50,A549,2.47 µM (inactive)
same,GI50,NCI-H226,41.4 µM (inactive)
same,GI50,OVCAR-4,2.04 µM (inactive)
same,GI50,MCF7,2.39 µM (inactive)
same,GI50,U-251,2.95 µM (inactive)
same,GI50,IGROV-1,1.65 µM (inactive)
same,GI50,MOLT-4,1.63 µM (inactive)
same,GI50,HCC 2998,3.27 µM (inactive)
same,GI50,SK-MEL-5,4.07 µM (inactive)
same,GI50,HT-29,2.36 µM (inactive)
same,GI50,T47D,1.23 µM (inactive)
same,GI50,PC-3,1.88 µM (inactive)
same,GI50,SN12C,2.32 µM (inactive)
same,GI50,SF-268,2.68 µM (inactive)
same,GI50,UO-31,1.84 µM (inactive)
same,GI50,RPMI-8226,2.99 µM (inactive)
same,GI50,Hs-578T,2.33 µM (inactive)
same,GI50,A498,1.95 µM (inactive)
same,GI50,SK-MEL-2,1.69 µM (inactive)
same,GI50,EKVX,2.83 µM (inactive)
same,GI50,COLO 205,1.64 µM (inactive)
same,GI50,TK-10,28.8 µM (inactive)
same,GI50,OVCAR-8,1.77 µM (inactive)
same,GI50,LOX IMVI,2.44 µM (inactive)
same,GI50,ACHN,1.98 µM (inactive)
same,GI50,RXF 393,1.77 µM (inactive)
same,GI50,M14,2.79 µM (inactive)
same,GI50,HL-60,3.45 µM (inactive)
same,GI50,HCT-116,3.38 µM (inactive)
same,GI50,SF-295,2.2 µM (inactive)
same,GI50,CCRF-CEM,0.565 µM (active)
same,GI50,HOP-62,3.85 µM (inactive)
same,GI50,SF-539,2.3 µM (inactive)
same,GI50,NCI-H460,2.7 µM (inactive)
